Test results published in ChEMBL document CHEMBL1138338, “Design, synthesis, and structure-activity relationships of a novel series of 5-alkylidenepyridazin-3(2H)-ones with a non-cAMP-based antiplatelet activity” (J Med Chem, 2007).
Calls of active or inactive are those of the source. The calls are words filed in the database; no cut-off is given here.

Tests used:
[1] = (§1) Inhibition of thrombin-induced platelet aggregation in human platelets after 5 mins by turbidimetric method; type: functional, cell-based
Platelet = test: as §1; type: functional, cell-based
[2] = Inhibition of PDE3 in guinea pig ventricle; parameters: species or system Cavia porcellus

Row | IC50 [1] [µM] | IC50 [2] [µM] | SMILES | Activity (Platelet)
1 | 126 | – | N#CC(C#N)=Cc1cnn(Cc2ccccc2)c(=O)c1 | –
2 | 170 | – | O=C(/C=C/c1cnn(Cc2ccccc2)c(=O)c1)c1ccccc1 | –
3 | 17.5 | – | CC(C)OC(=O)C(=Cc1cc(=O)[nH]nc1-c1ccccc1)C(=O)OC(C)C | Dose-dependent effect
4 | 13.3 | – | CC(C)OC(=O)C(=Cc1cnn(C)c(=O)c1)C(=O)OC(C)C | –
5 | 1.64 | – | Cn1ncc(C=C(C(=O)OCc2ccccc2)C(=O)OCc2ccccc2)cc1=O | –
6 | 1.36 | – | O=C(OCc1ccccc1)C(=Cc1cnn(Cc2ccccc2)c(=O)c1)C(=O)OCc1ccccc1 | Dose-dependent effect
7 | 509 | – | O=C1C(CC[S+]([O-])c2ccccc2)C(=O)N(c2ccccc2)N1c1ccccc1 (configuration not stated) [SULFINPYRAZONE] | –
8 | 4.86 | – | COC(=O)C(=Cc1cnn(Cc2ccccc2)c(=O)c1)C(=O)OC | –
9 | 7.5 | – | CC(C)(C)OC(=O)C(=Cc1cc(=O)[nH]nc1-c1ccccc1)C(=O)OC(C)(C)C | –
10 | 15.6 | – | COC(=O)C(=Cc1cnn(C)c(=O)c1)C(=O)OC | –
11 | 20 | 2000 | CCOC(=O)C(=Cc1cc(=O)[nH]nc1-c1ccccc1)C(=O)OCC | –
12 | 8.7 | – | CCOC(=O)C(=Cc1cn[nH]c(=O)c1)C(=O)OCC | –
13 | 4.1 | – | CC(C)OC(=O)C(=Cc1cc(=O)n(C)nc1-c1ccccc1)C(=O)OC(C)C | –
14 | 1.4 | – | Cn1nc(-c2ccccc2)c(C=C(C(=O)OCc2ccccc2)C(=O)OCc2ccccc2)cc1=O | –
15 | 12.3 | – | CCOC(=O)C(=Cc1cnn(C)c(=O)c1)C(=O)OCC | –
16 | – | – | COCn1nc(-c2ccccc2)c(/C=C/C(=O)OC)cc1=O | inactive
17 | 6.25 | – | CC(C)(C)OC(=O)C(=Cc1cnn(Cc2ccccc2)c(=O)c1)C(=O)OC(C)(C)C | –
18 | 221 | – | N#C/C=C/c1cnn(Cc2ccccc2)c(=O)c1 | –
19 | 3.58 | – | O=C(OCc1ccccc1)C(=Cc1cn[nH]c(=O)c1)C(=O)OCc1ccccc1 | –
20 | 95 | – | Cn1ncc(C=C(C(=O)OC(C)(C)C)C(=O)OC(C)(C)C)cc1=O | –
21 | 4.7 | – | Cc1[nH]c(=O)c(C#N)cc1-c1ccncc1 [MILRINONE] | –
22 | 2.9 | – | CC(C)OC(=O)C(=Cc1cnn(Cc2ccccc2)c(=O)c1)C(=O)OC(C)C | –
23 | 9.2 | 2000 | COC(=O)C(=Cc1cc(=O)n(C)nc1-c1ccccc1)C(=O)OC | –
24 | 40.2 | – | COC(=O)C(=Cc1cn[nH]c(=O)c1)C(=O)OC | –
25 | 17 | – | CCOC(=O)C(=Cc1cc(=O)n(C)nc1-c1ccccc1)C(=O)OCC | –
26 | 142 | – | O=C(/C=C/c1cc(=O)[nH]nc1-c1ccccc1)c1ccccc1 | –
27 | 45 | 2000 | COC(=O)C(=Cc1cc(=O)[nH]nc1-c1ccccc1)C(=O)OC | Dose-dependent effect
28 | 1.8 | – | O=C(OCc1ccccc1)C(=Cc1cc(=O)[nH]nc1-c1ccccc1)C(=O)OCc1ccccc1 | –
29 | 45 | – | Cn1nc(-c2ccccc2)c(C=C(C(=O)OC(C)(C)C)C(=O)OC(C)(C)C)cc1=O | –
30 | 3.62 | – | CCOC(=O)C(=Cc1cnn(Cc2ccccc2)c(=O)c1)C(=O)OCC | –

Row | SMILES | IC50 [1] [µM] | IC50 [2] [µM] | Activity (Platelet)
31 | Cn1ncc(C=C(C#N)C#N)cc1=O | 475 | – | –
